The source of these data is patent US11344554B2, “Animal and human anti-malarial agents” (Celgene Corporation, priority 2016, dated 2022).

The subject of the first test is Plasmodium falciparum. Kind of test: Plasmodium falciparum in vitro [3H]-hypoxanthine parasite growth inhibition assay. The class given is cell-based. The note with it: Erythrocyte, P. falciparum asexual blood stage parasites in human erythrocytes, [3H]-hypoxanthine uptake, read-out: Act Class (IC50 activity level).
Regarding `CC(C)Nc1ncc2nc(Nc3ccc(C(F)(F)F)c(Cl)c3)n(C3CCNCC3)c2n1` [Cpd 91, N8-(3-chloro-4-(trifluoromethyl)phenyl)-N2-isopropyl-9-(piperidin-4-yl)-9H-purine-2,8-diamine], the IC50 lay within 200 to 500 nM.

For the compound `FC(F)(F)c1ccc(Nc2nc3cnc(NC4CCCC4)nc3n2C2CCNCC2)cc1Cl` [Cpd 92, N8-(3-chloro-4-(trifluoromethyl)phenyl)-N2-cyclopentyl-9-(piperidin-4-yl)-9H-purine-2,8-diamine], the IC50 lay in the range of 200 to 500 nM. Regarding `CC1(Nc2ncc3nc(Nc4ccc(C(F)(F)F)c(Cl)c4)n(C4CCNCC4)c3n2)CC1` [Cpd 93, N8-(3-chloro-4-(trifluoromethyl)phenyl)-N2-(1-methylcyclopropyl)-9-(piperidin-4-yl)-9H-purine-2,8-diamine], the IC50 fell in the range of 200 to 500 nM. Regarding `CC1(Nc2ncc3nc(Nc4ccc(C(F)(F)F)c(Cl)c4)n(C4CCNCC4)c3n2)CCCC1` [Cpd 94, N8-(3-chloro-4-(trifluoromethyl)phenyl)-N2-(1-methylcyclopentyl)-9-(piperidin-4-yl)-9H-purine-2,8-diamine], the IC50 lay within 100 to 200 nM.

Take `CC(C)(C)Nc1ncc2nc(Nc3cccc(C(F)(F)F)c3)n(C3CC4CNCC4C3)c2n1` (stereo not drawn) [Cpd 95, N2-tert-butyl-9-(octahydrocyclopenta[c]pyrrol-5-yl)-N8-(3-(trifluoromethyl)phenyl)-9H-purine-2,8-diamine]: the IC50 lay in the range of 200 to 500 nM.

`FC(F)(F)c1cc(Nc2nc3cnc(NC4CC4)nc3n2C2CCNCC2)cc(C(F)(F)F)c1` [Cpd 96, N8-(3,5-bis(trifluoromethyl)phenyl)-N2-cyclopropyl-9-(piperidin-4-yl)-9H-purine-2,8-diamine]: the IC50 is 100 to 200 nM. In the case of `CC(N)CCn1c(Nc2cc(Cl)cc(C(F)(F)F)c2)nc2cnc(NC3CCCC3)nc21` (stereo not drawn) [Cpd 111, 9-(3-aminobutyl)-N8-(3-chloro-5-(trifluoromethyl)phenyl)-N2-cyclopentyl-9H-purine-2,8-diamine], the IC50 lay within 100 to 200 nM.

With `CC(N)CCn1c(Nc2cc(Cl)cc(C(F)(F)F)c2)nc2cnc(NC(C)(C)C)nc21` (stereo not drawn) [Cpd 112, 9-(3-aminobutyl)-N2-tert-butyl-N8-(3-chloro-5-(trifluoromethyl)phenyl)-9H-purine-2,8-diamine], the IC50 lay in the range of 200 to 500 nM.

The test is the same for the next values; noted with them: Erythrocyte, read-out: Act Class (IC50 activity level).
With `CC(C)(C)Nc1ncc2nc(Nc3cc(Cl)cc(C(F)(F)F)c3)n(CC3CCNC3)c2n1` (stereo not drawn) [Cpd 98, N2-tert-butyl-N8-(3-chloro-5-(trifluoromethyl)phenyl)-9-(pyrrolidin-3-ylmethyl)-9H-purine-2,8-diamine], the IC50 was in the range of 200 to 500 nM.

By IC50 is commonly meant the concentration at which inhibition is half-maximal.
